Some test systems named below: RXF 393 renal; HOP-62 NSCLC; PC-3 prostate; SW-620 colon; SK-OV-3 ovarian; ACHN renal; MALME-3M melanoma; MDA-MB-231 breast; K-562 leukemia; UACC-62 melanoma.
What all share (assay): NCI-60 cell line screen, 48 h

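Tested at 5 concentrations; 48 h exposure; 96-well plates; endpoints linearly interpolated, else capped at highest concentration. Here, GI50 denotes the concentration required for 50% inhibition of growth. TGI marks complete inhibition of growth.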 A value given as a limit tells only on which side of the number the result lay.

Here are results for eleven molecules from PubChem BioAssay (NCI).

On to `O=[N+]([O-])c1ccc(N2N=C(c3ccc4ccccc4c3O)CC2c2ccc(Cl)cc2)c([N+](=O)[O-])c1` (stereo not given), for which the TGI in the experiment with RXF 393 renal, with HOP-62 NSCLC, in the experiment on PC-3 prostate, in the experiment with SW-620 colon, with SK-OV-3 ovarian and in the experiment with ACHN renal was more than 100 µM throughout. Also, the TGI in the experiment with MALME-3M melanoma was more than 100 µM; with MDA-MB-231 breast, more than 100 µM; with K-562 leukemia, 52 µM; in the experiment with UACC-62 melanoma it was more than 100 µM.

Turning to `Nc1nc(=O)n(C2OC(CO)C(O)C2O)c2ncc(-c3ccc(-c4ccccc4)cc3)nc12` (stereo not given), the TGI in the experiment on RXF 393 renal, in the experiment on HOP-62 NSCLC, in the experiment on PC-3 prostate, in the experiment with SW-620 colon, in the experiment on SK-OV-3 ovarian and in the experiment on ACHN renal was more than 100 µM each time. For the same molecule, the TGI in the experiment with MALME-3M melanoma was more than 100 µM; with MDA-MB-231 breast it was 57.7 µM; in the experiment on K-562 leukemia, more than 100 µM; in the experiment with UACC-62 melanoma it was more than 100 µM.

In the case of `CN(Cc1cnc2nc(N)nc(N)c2n1)c1ccc(C(=O)NC(CCC(=O)NC(CC(P(=O)(O)O)P(=O)(O)O)C(=O)O)C(=O)O)cc1` (stereo not given), the TGI in the experiment on RXF 393 renal, in the experiment on HOP-62 NSCLC, with PC-3 prostate, in the experiment on SW-620 colon, in the experiment with SK-OV-3 ovarian and in the experiment on ACHN renal was more than 100 µM in each case. For the same molecule, the TGI with MALME-3M melanoma, in the experiment on MDA-MB-231 breast and in the experiment on UACC-62 melanoma was more than 100 µM in each case.

Consider `O=C(O)CCc1ccc2c(c1)CC1(Cc3ccccc3C1)C2`, for which the TGI in the experiment with RXF 393 renal, in the experiment with HOP-62 NSCLC, in the experiment with PC-3 prostate, in the experiment with SK-OV-3 ovarian, in the experiment with ACHN renal and in the experiment with MALME-3M melanoma was more than 100 µM throughout. Further, the TGI in the experiment on MDA-MB-231 breast and in the experiment on UACC-62 melanoma was more than 100 µM in each case.

For the molecule `CC1=CCC[C@H]2[C@](C)(CC3=CC(=O)C(Sc4ccccc4)=CC3=O)[C@@H](C)CC[C@]12C`, the GI50 was 16.1 µM in the experiment with RXF 393 renal and 19.5 µM in the experiment with K-562 leukemia. Also, the TGI was 34.3 µM with RXF 393 renal; 32.6 µM with HOP-62 NSCLC; 82 µM with PC-3 prostate; 30.5 µM in the experiment with SW-620 colon; 35.3 µM with ACHN renal; 51.8 µM in the experiment with MDA-MB-231 breast. Also, the TGI in the experiment on K-562 leukemia worked out at 41.2 µM; in the experiment with UACC-62 melanoma, 55.3 µM.

In the case of `CC(=O)OCCCCn1cc(Cn2ccc(=O)n(Cc3cn(CCCCOC(C)=O)nn3)c2=O)nn1`, the TGI in the experiment on RXF 393 renal, with HOP-62 NSCLC, in the experiment with PC-3 prostate, in the experiment with SW-620 colon, with SK-OV-3 ovarian and in the experiment on ACHN renal was more than 100 µM throughout. The TGI in the experiment on MALME-3M melanoma, in the experiment with MDA-MB-231 breast and in the experiment on UACC-62 melanoma was more than 100 µM in each case.

Take `Nc1ccc2ccc(-c3ccc[nH]3)nc2n1`: the TGI in the experiment on RXF 393 renal, in the experiment on HOP-62 NSCLC, in the experiment on PC-3 prostate, in the experiment with SW-620 colon, in the experiment with SK-OV-3 ovarian and with ACHN renal was more than 100 µM each time. The TGI with MALME-3M melanoma and with MDA-MB-231 breast was more than 100 µM in each case.

With `COc1ccc2c(c1)CCN1CCCc3ccccc3C21` (stereo not given), the TGI in the experiment on RXF 393 renal, with HOP-62 NSCLC, in the experiment with PC-3 prostate, in the experiment on SW-620 colon, in the experiment on SK-OV-3 ovarian and with ACHN renal was more than 100 µM throughout. For the same molecule, the TGI with MDA-MB-231 breast, in the experiment on K-562 leukemia and with UACC-62 melanoma was more than 100 µM in each case.

For the molecule `CCCCCCCCCCCCCCCCCC(=O)Nc1ccn(C2CCC(COP(=O)(O)O)O2)c(=O)n1` (stereo not given), the TGI in the experiment with RXF 393 renal, in the experiment with HOP-62 NSCLC, in the experiment on PC-3 prostate, in the experiment on SW-620 colon, with SK-OV-3 ovarian and with ACHN renal was more than 100 µM each time. Besides, the TGI in the experiment on MDA-MB-231 breast, in the experiment on K-562 leukemia and in the experiment on UACC-62 melanoma was more than 100 µM throughout.

Turning to `O=C1C2=C(SCCS2)C(=O)c2c(Sc3ccc(Cl)cc3)c(Sc3ccc(Cl)cc3)c(Sc3ccc(Cl)cc3)c(Sc3ccc(Cl)cc3)c21`, the TGI in the experiment on RXF 393 renal is 99.4 µM; with HOP-62 NSCLC it was more than 100 µM; in the experiment with PC-3 prostate, more than 100 µM; with SW-620 colon, more than 100 µM; in the experiment on SK-OV-3 ovarian, more than 100 µM; in the experiment with ACHN renal, more than 100 µM. Also, the TGI in the experiment with MALME-3M melanoma amounted to 69.8 µM; in the experiment on MDA-MB-231 breast, 85.3 µM; with UACC-62 melanoma it was 52.8 µM.

Regarding `COc1c(C)c(C/C=C(\C)CC/C=C(\C)CC/C=C(\C)CCC=C(C)C)c(OC)c2ccccc12`, the TGI with RXF 393 renal, in the experiment with HOP-62 NSCLC, in the experiment with PC-3 prostate, in the experiment with SW-620 colon, in the experiment with SK-OV-3 ovarian and in the experiment on ACHN renal was more than 100 µM throughout. Moreover, the TGI with MDA-MB-231 breast, in the experiment with K-562 leukemia and in the experiment with UACC-62 melanoma was more than 100 µM each time.
